Laboratory results from US11427567B2, “Imidazolyl pyrimidinylamine compounds as CDK2 inhibitors” (Incyte Corporation, priority 2019, dated 2022).

Molecular target: CDK2/Cyclin E1 (Homo sapiens (Human), UniProt P24941)
Test: CDK2/Cyclin E1 HTRF enzyme activity assay (Example A)
Format: biochemical
Settings: 1 mM ATP
Method: Assays were conducted in white 384-well polystyrene plates in a final reaction volume of 8 μL. […] HTRF signals were read after 1 hour at room temperature on a PHERAstar FS plate reader (BMG Labtech). Data was analyzed with IDBS XLFit and GraphPad Prism 5.0 software using a three or four parameter dose response curve to determine IC50 for each compound.

Structure (SMILES)	IC50
CS(=O)(=O)N1CCC(Nc2ncc(C(F)(F)F)c(-c3cn(-c4ccc(CN5CC[C@@H](O)C5)cc4C#N)cn3)n2)CC1 [Example 342, (R)-5-((3-Hydroxypyrrolidin-1-yl)methyl)-2-(4-(2-((1-(methylsulfonyl)piperidin-4-yl)amino)-5-(trifluoromethyl)pyrimidin-4-yl)-1H-imidazol-1-yl)benzonitrile]	≤ 50 nM
COCCNc1ccc(-n2cc(-c3nc(NC4CCN(S(C)(=O)=O)CC4)ncc3C(F)(F)F)nc2C)c(F)c1 [Example 112, 4-(1-(2-Fluoro-4-((2-methoxyethyl)-amino)phenyl)-2-methyl-1H-imidazol-4-yl)-N-(1-(methyl-sulfonyl)piperidin-4-yl)-5-(trifluoro-methyl)pyrimidin-2-amine]	≤ 50 nM
CS(=O)(=O)N1CCC(Nc2ncc(C(F)(F)F)c(-c3cn(-c4cccc(F)c4C#N)cn3)n2)CC1 [Example 56, 2-Fluoro-6-(4-(2-((1-(methylsulfonyl)piperidin-4-yl)amino)-5-(trifluoromethyl)pyrimidin-4-yl)-1H-imidazol-1-yl)benzonitrile]	≤ 50 nM
CC(C)NCc1ccc(-n2cnc(-c3nc(N[C@@H]4CCN(S(C)(=O)=O)C[C@H]4F)ncc3C(F)(F)F)c2)c(Cl)c1 [Example 400, 4-(1-(2-Chloro-4-((isopropylamino)methyl)phenyl)-1H-imidazol-4-yl)-N-((3R,4R)-3-fluoro-1-(methylsulfonyl)piperidin-4-yl)-5-(trifluoromethyl)pyrimidin-2-amine]	≤ 50 nM
CS(=O)(=O)N1CC[C@@H](Nc2ncc(C(F)(F)F)c(-c3cn(-c4ccc(C#N)cc4Cl)cn3)n2)[C@H](F)C1 [Example 173, 3-Chloro-4-(4-(2-(((3R,4R)-3-fluoro-1-(methylsulfonyl)-piperidin-4-yl)-amino)-5-(trifluoro-methyl)pyrimidin-4-yl)-1H-imidazol-1-yl)benzonitrile]	≤ 50 nM
CS(=O)(=O)N1CCC(Nc2ncc(C(F)(F)F)c(-c3cn(-c4ccc(CNC5CC5)cc4Cl)cn3)n2)CC1 [Example 190, 4-(1-(2-Chloro-4-((cyclopropylamino)-methyl)phenyl)-1H-imidazol-4-yl)-N-(1-(methylsulfonyl)-piperidin-4-yl)-5-(trifluoromethyl)-pyrimidin-2-amine]	≤ 50 nM
CCS(=O)(=O)N1CCC(Nc2ncc(C(F)(F)F)c(-c3cn(-c4ccc(C)nc4C#N)cn3)n2)CC1 [Example 87, 3-(4-(2-((1-(Ethylsulfonyl)piperidin-4-yl)amino)-5-(trifluoromethyl)pyrimidin-4-yl)-1H-imidazol-1-yl)-6-methylpicolinonitrile]	≤ 50 nM
CS(=O)(=O)N1CCC(Nc2ncc(C(F)(F)F)c(-c3cn(-c4ccc(CNC5CC5)cc4C#N)cn3)n2)CC1 [Example 343, 5-((Cyclopropylamino)methyl)-2-(4-(2-((1-(methylsulfonyl)piperidin-4-yl)amino)-5-(trifluoromethyl)pyrimidin-4-yl)-1H-imidazol-1-yl)benzonitrile]	≤ 50 nM
CN1CCN(Cc2cc(F)c(-n3cnc(-c4nc(N[C@H]5CCN(S(C)(=O)=O)C[C@H]5F)ncc4C(F)(F)F)c3)c(F)c2)CC1 [Example 443, 4-(1-(2,6-Difluoro-4((4-methylpiperazin-1-yl)methyl)phenyl)-1H-imidazol-4-yl)-N-((3R,4S)-3-fluoro-1-(methylsulfonyl)piperidin-4-yl)-5-(trifluoromethyl)pyrimidin-2-amine]	≤ 50 nM
CN(C)Cc1ccc(-n2cnc(-c3nc(NC4CCN(S(C)(=O)=O)CC4)ncc3C(F)(F)F)c2)c(C(F)(F)F)n1 [Example 246, 4-(1-(6-((Dimethylamino)methyl)-2-(trifluoromethyl)pyridin-3-yl)-1H-imidazol-4-yl)-N-(1-(methylsulfonyl)piperidin-4-yl)-5-(trifluoromethyl)pyrimidin-2-amine]	≤ 50 nM
CN(C)CCOc1ccc(-n2cnc(-c3nc(NC4CCN(S(C)(=O)=O)CC4)ncc3C(F)(F)F)c2)c(C#N)n1 [Example 40, 6-(2-(Dimethylamino)ethoxy)-3-(4-(2-((1-(methylsulfonyl)piperidin-4-yl)amino)-5-(trifluoromethyl)pyrimidin-4-yl)-1H-imidazol-1-yl)picolinonitrile]	≤ 50 nM
CS(=O)(=O)N1CCC(Nc2ncc(C#N)c(-c3cn(-c4ccc(C#N)cc4Cl)cn3)n2)CC1 [Example 28, 4-(1-(2-Chloro-4-cyanophenyl)-1H-imidazol-4-yl)-2-((1-(methylsulfonyl)piperidin-4-yl)amino)pyrimidine-5-carbonitrile]	≤ 50 nM
[2H]C([2H])([2H])N(Cc1ccc(-n2cc(-c3nc(NC4CCN(S(C)(=O)=O)CC4)ncc3C(F)(F)F)nc2C)c(F)c1)C([2H])([2H])[2H] [Example 280, 4-(1-(4-((Bis(methyl-d)amino)methyl)-2-fluorophenyl)-2-methyl-1H-imidazol-4-yl)-N-(1-(methylsulfonyl)piperidin-4-yl)-5-(trifluoromethyl)pyrimidin-2-amine]	≤ 50 nM
CS(=O)(=O)N1CCC(Nc2ncc(C(F)(F)F)c(-c3cn(-c4ccc(OCCN5CCCC5)cc4C#N)cn3)n2)CC1 [Example 437, 2-(4-(2-((1-(Methylsulfonyl)piperidin-4-yl)amino)-5-(trifluoromethyl)pyrimidin-4-yl)-1H-imidazol-1-yl)-5-(2-(pyrrolidin-1-yl)ethoxy)benzonitrile]	≤ 50 nM
CS(=O)(=O)N1CCC(Nc2ncc(C(F)(F)F)c(-c3cn(-c4cccc(CNC5CCOCC5)c4Cl)cn3)n2)CC1 [Example 368, 4-(1-(2-Chloro-3-(((tetrahydro-2H-pyran-4-yl)amino)methyl)phenyl)-1H-imidazol-4-yl)-N-(1-(methylsulfonyl)piperidin-4-yl)-5-(trifluoromethyl)pyrimi-din-2-amine]	≤ 50 nM

Now from value to molecule:

IC50	Structure (SMILES)
≤ 50 nM	CCN1CCN(Cc2ccc(-n3cc(-c4nc(N[C@H]5CCN(S(C)(=O)=O)C[C@H]5F)ncc4C(F)(F)F)nc3C)c(F)c2)CC1 [Example 445, 4-(1-(4-((4-Ethylpiperazin-1-yl)methyl)-2-fluorophenyl)-2-methyl-1H-imidazol-4-yl)-N-((3R,4S)-3-fluoro-1-(methylsulfonyl)piperidin-4-yl)-5-(trifluoromethyl)pyrimidin-2-amine]
≤ 50 nM	CCN1CC(c2ccc(-n3cnc(-c4nc(NC5CCN(S(C)(=O)=O)CC5)ncc4C(F)(F)F)c3)c(C#N)c2)C1 [Example 429, 5-(1-Ethylazetidin-3-yl)-2-(4-(2-((1-(methylsulfonyl)piperidin-4-yl)amino)-5-(trifluoromethyl)pyrimidin-4-yl)-1H-imidazol-1-yl)benzonitrile]
≤ 50 nM	Cc1nn(C)cc1-n1cnc(-c2nc(NC3CCN(S(C)(=O)=O)CC3)ncc2C(F)(F)F)c1 [Example 169, 4-(1-(1,3-Dimethyl-1H-pyrazol-4-yl)-1H-imidazol-4-yl)-N-(1-(methylsulfonyl)piperidin-4-yl)-5-(trifluoromethyl)pyrimidin-2-amine]
≤ 50 nM	CS(=O)(=O)N1CC[C@H](Nc2ncc(C(F)(F)F)c(-c3cn(CC(F)F)cn3)n2)[C@H](F)C1 [Example 330, 4-(1-(2,2-Difluoroethyl)-1H-imidazol-4-yl)-N-((3R,4S)-3-fluoro-1-(methylsulfonyl)piperidin-4-yl)-5-(trifluoromethyl)pyrimidin-2-amine]
≤ 50 nM	CN1CCN(Cc2ccc(-n3cnc(-c4nc(NC5CCN(S(C)(=O)=O)CC5)ncc4C(F)(F)F)c3)c(C#N)c2)CC1 [Example 344, 5-((4-Methylpiperazin-1-yl)methyl)-2-(4-(2-((1-(methylsulfonyl)piperidin-4-yl)amino)-5-(trifluoromethyl)pyrimidin-4-yl)-1H-imidazol-1-yl)benzonitrile]
≤ 50 nM	C[C@@H]1CN(S(C)(=O)=O)CC[C@@H]1Nc1ncc(C(F)(F)F)c(-c2cn(-c3ccc(C#N)cc3Cl)cn2)n1 [Example 172, 3-Chloro-4-(4-(2-(((3R,4S)-3-methyl-1-(methylsulfonyl)-piperidin-4-yl)-amino)-5-(trifluoro-methyl)pyrimidin-4-yl)-1H-imidazol-1-yl)benzonitrile]
≤ 50 nM	Cn1nncc1-c1ccc(-n2cnc(-c3nc(NC4CCN(S(C)(=O)=O)CC4)ncc3C(F)(F)F)c2)c(Cl)c1 [Example 122, 4-(1-(2-Chloro-4-(1-methyl-1H-1,2,3-triazol-5-yl)phenyl)-1H-imidazol-4-yl)-N-(1-(methyl-sulfonyl)piperidin-4-yl)-5-(trifluoro-methyl)pyrimidin-2-amine]
≤ 50 nM	CS(=O)(=O)N1CCC(Nc2ncc(C(F)(F)F)c(-c3cn(-c4ccc(C(F)(F)F)nc4C#N)cn3)n2)CC1 [Example 64, 3-(4-(2-((1-(Methylsulfonyl)piperidin-4-yl)amino)-5-(trifluoromethyl)pyrimidin-4-yl)-1H-imidazol-1-yl)-6-(trifluoromethyl)picolinonitrile]
≤ 50 nM	CS(=O)(=O)N1CCC(Nc2ncc(C(F)(F)F)c(-c3cn(-c4ccc(N5CCNC(=O)C5)cc4Cl)cn3)n2)CC1 [Example 150, 4-(3-Chloro-4-(4-(2-((1-(methyl-sulfonyl)piperidin-4-yl)amino)-5-(trifluoromethyl)-pyrimidin-4-yl)-1H-imidazol-1-yl)-phenyl)piperazin-2-one]
≤ 50 nM	CN1CCN(CCc2cccc(-n3cnc(-c4nc(NC5CCN(S(C)(=O)=O)CC5)ncc4C(F)(F)F)c3)c2Cl)CC1 [Example 464, 4-(1-(2-Chloro-3-(2-(4-methylpiperazin-1-yl)ethyl)phenyl)-1H-imidazol-4-yl)-N-(1-(methylsulfonyl)piperidin-4-yl)-5-(trifluoromethyl)pyrimidin-2-amine]
≤ 50 nM	CS(=O)(=O)N1CCC(Nc2ncc(C(F)(F)F)c(-c3cn(-c4ccc(C#N)cc4Cl)cn3)n2)CC1 [Example 1, 3-Chloro-4-(4-(2-((1-(methylsulfonyl)piperidin-4-yl)amino)-5-(trifluoromethyl)pyrimidin-4-yl)-1H-imidazol-1-yl)benzonitrile]
